Assay results published in ChEMBL document CHEMBL3045446, “In vitro antimicrobial and antimycobacterial activity of some chalcones and their derivatives” (2013).
Converted amounts (≈) assume the structure as drawn.

Experiments:
Format in all cases: functional
[1] = tested on: Mycobacterium tuberculosis; test: Antituberculosis activity against Mycobacterium tuberculosis H37Rv assessed as growth inhibition after 12 to 28 days by L-J MIC method; conditions: for MIC: Mycobacterium tuberculosis, H37Rv
Candida albicans [2] = test: Antimicrobial activity against Candida albicans MTCC 183 assessed as growth inhibition after 48 hr by agar streak dilution method; conditions: MTCC 183, 48 h
Aspergillus clavatus [3] = test: Antimicrobial activity against Aspergillus clavatus MTCC 1323 assessed as growth inhibition after 48 hr by agar streak dilution method; conditions: MTCC 1323, 48 h
Aspergillus fumigatus [4] = test: Antimicrobial activity against Aspergillus fumigatus MTCC 343 assessed as growth inhibition after 48 hr by agar streak dilution method; conditions: MTCC 343, 48 h
Aspergillus niger [5] = test: Antimicrobial activity against Aspergillus niger MTCC 282 assessed as growth inhibition after 48 hr by agar streak dilution method; conditions: MTCC 282, 48 h
Shigella flexneri [6] = test: Antimicrobial activity against Shigella flexneri MTCC1457 assessed as growth inhibition after 24 hr by agar streak dilution method; conditions: MTCC1457, 24 h
Proteus vulgaris [7] = test: Antimicrobial activity against Proteus vulgaris MTCC 1771 assessed as growth inhibition after 24 hr by agar streak dilution method; conditions: MTCC 1771, 24 h
Salmonella typhi [8] = test: Antimicrobial activity against Salmonella enterica subsp. enterica serovar Typhi MTCC 733 assessed as growth inhibition after 24 hr by agar streak dilution method; conditions: MTCC 733, 24 h
Klebsiella pneumoniae [9] = test: Antimicrobial activity against Klebsiella pneumoniae MTCC 109 assessed as growth inhibition after 24 hr by agar streak dilution method; conditions: MTCC 109, 24 h
Pseudomonas aeruginosa [10] = test: Antimicrobial activity against Pseudomonas aeruginosa MTCC 741 assessed as growth inhibition after 24 hr by agar streak dilution method; conditions: MTCC 741, 24 h
Escherichia coli [11] = test: Antimicrobial activity against Escherichia coli MTCC 739 assessed as growth inhibition after 24 hr by agar streak dilution method; conditions: MTCC 739, 24 h
Bacillus cereus [12] = test: Antimicrobial activity against Bacillus cereus MTCC 430 assessed as growth inhibition after 24 hr by agar streak dilution method; conditions: MTCC 430, 24 h
Staphylococcus aureus [13] = test: Antimicrobial activity against Staphylococcus aureus MTCC 96 assessed as growth inhibition after 24 hr by agar streak dilution method; conditions: MTCC 96, 24 h
Candida albicans [14] = test: Antimicrobial activity against Candida albicans MTCC 183 assessed as diameter of growth inhibition zone after 48 hr; further: test concentration or dose not given here
Aspergillus clavatus [15] = test: Antimicrobial activity against Aspergillus clavatus MTCC 1323 assessed as diameter of growth inhibition zone after 48 hr; further: test concentration or dose not given here
Aspergillus fumigatus [16] = test: Antimicrobial activity against Aspergillus fumigatus MTCC 343 assessed as diameter of growth inhibition zone after 48 hr; further: test concentration or dose not given here
Aspergillus niger [17] = test: Antimicrobial activity against Aspergillus niger MTCC 282 assessed as diameter of growth inhibition zone after 48 hr; further: test concentration or dose not given here
Shigella flexneri [18] = test: Antimicrobial activity against Shigella flexneri MTCC1457 assessed as diameter of growth inhibition zone after 24 hr
Proteus vulgaris [19] = test: Antimicrobial activity against Proteus vulgaris MTCC 1771 assessed as diameter of growth inhibition zone after 24 hr
Salmonella typhi [20] = test: Antimicrobial activity against Salmonella enterica subsp. enterica serovar Typhi MTCC 733 assessed as diameter of growth inhibition zone after 24 hr
Klebsiella pneumoniae [21] = test: Antimicrobial activity against Klebsiella pneumoniae MTCC 109 assessed as diameter of growth inhibition zone after 24 hr; further: test concentration or dose not given here
Pseudomonas aeruginosa [22] = test: Antimicrobial activity against Pseudomonas aeruginosa MTCC 741 assessed as diameter of growth inhibition zone after 24 hr
Escherichia coli [23] = test: Antimicrobial activity against Escherichia coli MTCC 739 assessed as diameter of growth inhibition zone after 24 hr; further: test concentration or dose not given here
Bacillus cereus [24] = test: Antimicrobial activity against Bacillus cereus MTCC 430 assessed as diameter of growth inhibition zone after 24 hr; further: test concentration or dose not given here
Staphylococcus aureus [25] = test: Antimicrobial activity against Staphylococcus aureus MTCC 96 assessed as diameter of growth inhibition zone after 24 hr; further: test concentration or dose not given here

SMILES | growth inhibition (GI) [1] [%] | MIC [1] [µg/mL] | MIC (Candida albicans [2]) [µg/mL] | MIC (Aspergillus clavatus [3]) [µg/mL] | MIC (Aspergillus fumigatus [4]) [µg/mL] | MIC (Aspergillus niger [5]) [µg/mL] | MIC (Shigella flexneri [6]) [µg/mL] | MIC (Proteus vulgaris [7]) [µg/mL] | MIC (Salmonella typhi [8]) [µg/mL] | MIC (Klebsiella pneumoniae [9]) [µg/mL] | MIC (Pseudomonas aeruginosa [10]) [µg/mL] | MIC (Escherichia coli [11]) [µg/mL] | MIC (Bacillus cereus [12]) [µg/mL] | MIC (Staphylococcus aureus [13]) [µg/mL] | diameter of the inhibition zone (DIZ) (Candida albicans [14]) [mm] | diameter of the inhibition zone (DIZ) (Aspergillus clavatus [15]) [mm] | diameter of the inhibition zone (DIZ) (Aspergillus fumigatus [16]) [mm] | diameter of the inhibition zone (DIZ) (Aspergillus niger [17]) [mm] | diameter of the inhibition zone (DIZ) (Shigella flexneri [18]) [mm] | diameter of the inhibition zone (DIZ) (Proteus vulgaris [19]) [mm] | also measured
CC(=O)N1N=C(c2ccc(Nc3cc(=O)oc4ccccc34)cc2)CC1c1ccc(F)cc1 (centres undefined) | 98 | 100 (≈ 227 µM) | 50 (≈ 113 µM) | 50 (≈ 113 µM) | 25 (≈ 56.6 µM) | 25 (≈ 56.6 µM) | 25 (≈ 56.6 µM) | 25 (≈ 56.6 µM) | 50 (≈ 113 µM) | 12.5 (≈ 28.3 µM) | 50 (≈ 113 µM) | 50 (≈ 113 µM) | 12.5 (≈ 28.3 µM) | 12.5 (≈ 28.3 µM) | 16 | 20 | 22 | 20 | 20 | 21 | diameter of the inhibition zone (DIZ) (Salmonella typhi [20]): 18 mm; diameter of the inhibition zone (DIZ) (Klebsiella pneumoniae [21]): 23 mm; diameter of the inhibition zone (DIZ) (Pseudomonas aeruginosa [22]): 17 mm; diameter of the inhibition zone (DIZ) (Escherichia coli [23]): 20 mm; diameter of the inhibition zone (DIZ) (Bacillus cereus [24]): 22 mm; diameter of the inhibition zone (DIZ) (Staphylococcus aureus [25]): 23 mm
COc1ccc(/C=C/C(=O)c2ccc(Nc3cc(=O)oc4ccccc34)cc2)cc1 | 96 | 250 (≈ 629 µM) | 100 (≈ 252 µM) | 50 (≈ 126 µM) | 100 (≈ 252 µM) | 50 (≈ 126 µM) | 100 (≈ 252 µM) | 50 (≈ 126 µM) | 100 (≈ 252 µM) | 100 (≈ 252 µM) | 100 (≈ 252 µM) | 50 (≈ 126 µM) | 100 (≈ 252 µM) | 100 (≈ 252 µM) | 16 | 18 | 16 | 20 | 15 | 18 | diameter of the inhibition zone (DIZ) (Salmonella typhi [20]): 14 mm; diameter of the inhibition zone (DIZ) (Klebsiella pneumoniae [21]): 16 mm; diameter of the inhibition zone (DIZ) (Pseudomonas aeruginosa [22]): 16 mm; diameter of the inhibition zone (DIZ) (Escherichia coli [23]): 18 mm; diameter of the inhibition zone (DIZ) (Bacillus cereus [24]): 13 mm; diameter of the inhibition zone (DIZ) (Staphylococcus aureus [25]): 15 mm
CC(=O)N1N=C(c2ccc(Nc3cc(=O)oc4ccccc34)cc2)CC1c1ccc(C)cc1 (centres undefined) | 98 | 200 (≈ 457 µM) | 100 (≈ 229 µM) | 100 (≈ 229 µM) | 100 (≈ 229 µM) | 50 (≈ 114 µM) | 50 (≈ 114 µM) | 50 (≈ 114 µM) | 100 (≈ 229 µM) | 100 (≈ 229 µM) | 100 (≈ 229 µM) | 100 (≈ 229 µM) | 100 (≈ 229 µM) | 100 (≈ 229 µM) | 14 | 11 | 15 | 19 | 20 | 20 | diameter of the inhibition zone (DIZ) (Salmonella typhi [20]): 14 mm; diameter of the inhibition zone (DIZ) (Klebsiella pneumoniae [21]): 13 mm; diameter of the inhibition zone (DIZ) (Pseudomonas aeruginosa [22]): 16 mm; diameter of the inhibition zone (DIZ) (Escherichia coli [23]): 12 mm; diameter of the inhibition zone (DIZ) (Bacillus cereus [24]): 16 mm; diameter of the inhibition zone (DIZ) (Staphylococcus aureus [25]): 16 mm
O=C(/C=C/c1ccc(Cl)cc1Cl)c1ccc(Nc2cc(=O)oc3ccccc23)cc1 | 95 | 1000 (≈ 2290 µM) | 100 (≈ 229 µM) | 100 (≈ 229 µM) | 50 (≈ 115 µM) | 100 (≈ 229 µM) | 100 (≈ 229 µM) | 50 (≈ 115 µM) | 50 (≈ 115 µM) | 100 (≈ 229 µM) | 100 (≈ 229 µM) | 100 (≈ 229 µM) | 50 (≈ 115 µM) | 25 (≈ 57.3 µM) | 12 | 14 | 17 | 15 | 13 | 19 | diameter of the inhibition zone (DIZ) (Salmonella typhi [20]): 17 mm; diameter of the inhibition zone (DIZ) (Klebsiella pneumoniae [21]): 16 mm; diameter of the inhibition zone (DIZ) (Pseudomonas aeruginosa [22]): <10 mm; diameter of the inhibition zone (DIZ) (Escherichia coli [23]): 14 mm; diameter of the inhibition zone (DIZ) (Bacillus cereus [24]): 16 mm; diameter of the inhibition zone (DIZ) (Staphylococcus aureus [25]): 20 mm
